Laboratory results: PMC11576293, “New series of 4,6-diaryl pyrimidines: facile synthesis and antiproliferative activity as dual EGFR/VEGFR-2 inhibitors” (Frontiers in Chemistry, 2024)

System: CAKI-1
Test: NCI-60 single-dose screen
Type: cell-based
Settings: Homo sapiens, single dose 10 µM, '-' = no inhibition, read-out: % Growth Inhibition
Procedure: (§1) The National Cancer Institute’s Developmental Therapeutic Program (www.dtp.nci.nih.gov) has tested compounds 9–29 (except compounds 21 and 22) against 60 cancer cell lines from nine types (leukemia, lung, colon, CNS, melanoma, ovarian, renal, prostate, and breast cancer) at a single dose (10 μM) ([El-Sherief et al., 2018]). […] The most sensitive cells included leukemia (SR, K-562, and MOLT-4), lung (NCI-H522, […], and EKVX), breast (MCF-7 and T-47D), colon (HCT-15 and HT-29), and ovarian (NCI/ADR-RES).
(§2) The National Cancer Institute’s Developmental Therapeutic Program (www.dtp.nci.nih.gov) evaluated compounds 9–29 (excluding 21 and 22) against 60 cancer cell lines from nine categories (leukemia, lung, colon, CNS, melanoma, ovarian, renal, prostate, and breast cancer) at a single dose (10 μM) ([El-Sherief et al., 2018]). See Supplementary Material A1 for more details.

SMILES	inhibition at 10 µM
COc1ccc(-c2cc(-c3ccc(Cl)cc3)nc(SC(C)C)n2)cc1 [Compound 12, 4-(4-Chlorophenyl)-2-(isopropylthio)-6-(4-methoxyphenyl)pyrimidine]	14.1%
C=CCSc1nc(-c2ccc(Cl)cc2)cc(-c2ccc(OC)cc2)n1 [Compound 13, 2-(Allylthio)-4-(4-chlorophenyl)-6-(4-methoxyphenyl)pyrimidine]	14.8%

System: DU-145
Test: NCI-60 single-dose screen
Type: cell-based
Settings: Homo sapiens, single dose 10 µM, '-' = no inhibition, read-out: % Growth Inhibition
Procedure: as §1, §2

SMILES	inhibition at 10 µM
COc1ccc(-c2cc(-c3ccc(Cl)cc3)nc(SC(C)C)n2)cc1 [Compound 12, 4-(4-Chlorophenyl)-2-(isopropylthio)-6-(4-methoxyphenyl)pyrimidine]	14.7%
C=CCSc1nc(-c2ccc(Cl)cc2)cc(-c2ccc(OC)cc2)n1 [Compound 13, 2-(Allylthio)-4-(4-chlorophenyl)-6-(4-methoxyphenyl)pyrimidine]	1.02%

System: HCT-116
Test: NCI-60 single-dose screen
Type: cell-based
Settings: Homo sapiens, single dose 10 µM, '-' = no inhibition, read-out: % Growth Inhibition
Procedure: as §1, §2

SMILES	inhibition at 10 µM
COc1ccc(-c2cc(-c3ccc(Cl)cc3)nc(SC(C)C)n2)cc1 [Compound 12, 4-(4-Chlorophenyl)-2-(isopropylthio)-6-(4-methoxyphenyl)pyrimidine]	19.6%
C=CCSc1nc(-c2ccc(Cl)cc2)cc(-c2ccc(OC)cc2)n1 [Compound 13, 2-(Allylthio)-4-(4-chlorophenyl)-6-(4-methoxyphenyl)pyrimidine]	5.47%

System: HOP-92
Test: NCI-60 single-dose screen
Type: cell-based
Settings: Homo sapiens, single dose 10 µM, '-' = no inhibition, read-out: % Growth Inhibition
Procedure: as §1, §2

SMILES	inhibition at 10 µM
COc1ccc(-c2cc(-c3ccc(Cl)cc3)nc(SC(C)C)n2)cc1 [Compound 12, 4-(4-Chlorophenyl)-2-(isopropylthio)-6-(4-methoxyphenyl)pyrimidine]	< 0%
C=CCSc1nc(-c2ccc(Cl)cc2)cc(-c2ccc(OC)cc2)n1 [Compound 13, 2-(Allylthio)-4-(4-chlorophenyl)-6-(4-methoxyphenyl)pyrimidine]	< 0%

System: HS 578T
Test: NCI-60 single-dose screen
Type: cell-based
Settings: Homo sapiens, single dose 10 µM, '-' = no inhibition, read-out: % Growth Inhibition
Procedure: as §1, §2

SMILES	inhibition at 10 µM
COc1ccc(-c2cc(-c3ccc(Cl)cc3)nc(SC(C)C)n2)cc1 [Compound 12, 4-(4-Chlorophenyl)-2-(isopropylthio)-6-(4-methoxyphenyl)pyrimidine]	< 0%
C=CCSc1nc(-c2ccc(Cl)cc2)cc(-c2ccc(OC)cc2)n1 [Compound 13, 2-(Allylthio)-4-(4-chlorophenyl)-6-(4-methoxyphenyl)pyrimidine]	< 0%

System: MDA-MB-435
Test: NCI-60 single-dose screen
Type: cell-based
Settings: Homo sapiens, single dose 10 µM, '-' = no inhibition, read-out: % Growth Inhibition
Procedure: as §1, §2

SMILES	inhibition at 10 µM
COc1ccc(-c2cc(-c3ccc(Cl)cc3)nc(SC(C)C)n2)cc1 [Compound 12, 4-(4-Chlorophenyl)-2-(isopropylthio)-6-(4-methoxyphenyl)pyrimidine]	8.92%
C=CCSc1nc(-c2ccc(Cl)cc2)cc(-c2ccc(OC)cc2)n1 [Compound 13, 2-(Allylthio)-4-(4-chlorophenyl)-6-(4-methoxyphenyl)pyrimidine]	5.34%

System: OVCAR-3
Test: NCI-60 single-dose screen
Type: cell-based
Settings: Homo sapiens, single dose 10 µM, '-' = no inhibition, read-out: % Growth Inhibition
Procedure: as §1, §2

SMILES	inhibition at 10 µM
COc1ccc(-c2cc(-c3ccc(Cl)cc3)nc(SC(C)C)n2)cc1 [Compound 12, 4-(4-Chlorophenyl)-2-(isopropylthio)-6-(4-methoxyphenyl)pyrimidine]	< 0%
C=CCSc1nc(-c2ccc(Cl)cc2)cc(-c2ccc(OC)cc2)n1 [Compound 13, 2-(Allylthio)-4-(4-chlorophenyl)-6-(4-methoxyphenyl)pyrimidine]	< 0%

System: SF-295
Test: NCI-60 single-dose screen
Type: cell-based
Settings: Homo sapiens, single dose 10 µM, '-' = no inhibition, read-out: % Growth Inhibition
Procedure: as §1, §2

SMILES	inhibition at 10 µM
COc1ccc(-c2cc(-c3ccc(Cl)cc3)nc(SC(C)C)n2)cc1 [Compound 12, 4-(4-Chlorophenyl)-2-(isopropylthio)-6-(4-methoxyphenyl)pyrimidine]	4.52%
C=CCSc1nc(-c2ccc(Cl)cc2)cc(-c2ccc(OC)cc2)n1 [Compound 13, 2-(Allylthio)-4-(4-chlorophenyl)-6-(4-methoxyphenyl)pyrimidine]	1.47%

System: SN12C
Test: NCI-60 single-dose screen
Type: cell-based
Settings: Homo sapiens, single dose 10 µM, '-' = no inhibition, read-out: % Growth Inhibition
Procedure: as §1, §2

SMILES	inhibition at 10 µM
COc1ccc(-c2cc(-c3ccc(Cl)cc3)nc(SC(C)C)n2)cc1 [Compound 12, 4-(4-Chlorophenyl)-2-(isopropylthio)-6-(4-methoxyphenyl)pyrimidine]	19.8%
C=CCSc1nc(-c2ccc(Cl)cc2)cc(-c2ccc(OC)cc2)n1 [Compound 13, 2-(Allylthio)-4-(4-chlorophenyl)-6-(4-methoxyphenyl)pyrimidine]	6.62%

System: SW-620
Test: NCI-60 single-dose screen
Type: cell-based
Settings: Homo sapiens, single dose 10 µM, '-' = no inhibition, read-out: % Growth Inhibition
Procedure: as §1, §2

SMILES	inhibition at 10 µM
COc1ccc(-c2cc(-c3ccc(Cl)cc3)nc(SC(C)C)n2)cc1 [Compound 12, 4-(4-Chlorophenyl)-2-(isopropylthio)-6-(4-methoxyphenyl)pyrimidine]	5.57%
C=CCSc1nc(-c2ccc(Cl)cc2)cc(-c2ccc(OC)cc2)n1 [Compound 13, 2-(Allylthio)-4-(4-chlorophenyl)-6-(4-methoxyphenyl)pyrimidine]	< 0%

System: not listed separately
Test: Cell viability assay (MTT) on normal cells
Type: cell-based
Settings: human, MCF-10A normal mammary gland epithelial cells, 4 days incubation
Procedure: This experiment examines the impact of the newly developed compounds 9–29 on normal cell lines to assess their safety level. The vitality of the investigated compounds was assessed using the MCF-10 A cell line, a normal human mammary gland epithelial cell line. Following 4 days of incubation on MCF-10 A cells with each examined compound at a concentration of 50 μM, the vitality of the cells was assessed using the MTT test ([Mahmoud et al., 2022]; [Mekheimer et al., 2022]).
This experiment examines the impact of the newly developed compounds 9–29 on normal cell lines to assess their safety level. The viability of 9–29 was assessed using the MCF-10 A cell line, a normal human mammary gland epithelial cell line. Following 4 days of incubation on MCF-10 A cells with each examined compound at a concentration of 50 μM, the vitality of the cells was assessed using the MTT test ([Mahmoud et al., 2022]; [Mekheimer et al., 2022]). Refer to Supplementary Material A1 for more details. […]
4.2. Biological evaluation
4.2.1. Cytotoxic activity using MTT Assay and evaluation of IC50
MTT assay was carried out to study the effect of compounds on mammary epithelial cells (MCF-10A). The medium in which cells were propagated contained Dulbecco's modified Eagle's medium (DMEM)/ Ham's F-12 medium (1:1) supplemented with epidermal growth factor (20 ng/mL), hydrocortisone (500 ng/mL), insulin (10 μg/mL), 2 mM glutamine and 10% foetal calf serum.
After every 2-3 days, the cells were passaged using trypsin ethylenediamine tetra acetic acid (EDTA). The cells were seeded at a density of 10^4 cells mL-1 in flat-bottomed culture plates containing 96 wells each. After 24 h, medium was removed from the plates and the compounds in (in 0.1% DMSO) were added (in 200 μL medium to yield a final concentration of 0.1% v/v) to the wells of plates. A single compound was designated with four wells followed by incubation of plates for 96h at 37°C. After incubation, medium was removed completely from the plates followed by addition of MTT (0.4 mg/mL in medium) to each well and subsequent incubation of plates for 3h. MTT (along with the medium) was removed and DMSO (150μL) was added to each well of the culture plates, followed by vertexing and subsequent measurement of absorbance (at 540 nm) using microplate reader. The data are shown as percentage inhibition of proliferation in comparison with controls containing 0.1% DMSO. […]

SMILES	viability at 4 days, 50 µM
COc1ccc(-c2cc(-c3ccc(Cl)cc3)nc(SC(C)C)n2)cc1 [Compound 12, 4-(4-Chlorophenyl)-2-(isopropylthio)-6-(4-methoxyphenyl)pyrimidine]	89%
C=CCSc1nc(-c2ccc(Cl)cc2)cc(-c2ccc(OC)cc2)n1 [Compound 13, 2-(Allylthio)-4-(4-chlorophenyl)-6-(4-methoxyphenyl)pyrimidine]	90%

System: A-549
Test: Antiproliferative assay (MTT)
Type: cell-based
Settings: Homo sapiens, A549, A-549 (lung), read-out: Antiproliferative activity IC50 ± SEM, A-549
Text: (§3) The MTT test was employed for this investigation ([Hisham et al., 2022]; [El-Sherief et al., 2019]; [Ramadan et al., 2020]). Table 2 presents the four cancer cell lines’ median inhibitory concentration (IC50) and GI50 (average IC50) values.
(§4) The MTT test was employed for this investigation ([Hisham et al., 2022]; [El-Sherief et al., 2019]; [Ramadan et al., 2020]). The IC50 values were derived from dose-response tests. The reported data are derived from at least two independent studies, each comprising three replicates per concentration. See Supplementary Material A1 for more details.
(§5) (in 0.1% DMSO) were added (in 200 μL medium to yield a final concentration of 0.1% v/v) to the wells of plates. A single compound was designated with four wells followed by incubation of plates for 96h at 37°C. After incubation, medium was removed completely from the plates followed by addition of MTT (0.4 mg/mL in medium) to each well and subsequent incubation of plates for 3h. MTT (along with the medium) was removed and DMSO (150μL) was added to each well of the culture plates, followed by vertexing and subsequent measurement of absorbance (at 540 nm) using microplate reader. The data are shown as percentage inhibition of proliferation in comparison with controls containing 0.1% DMSO.
(§6) 4.2.1.2. Assay for antiproliferative effect […]
(§7) (10%) and 1 µg/mL each of aprotinin, leupeptin and pepstatin for 120 min. The purification was performed either at 4 °C or on ice. To record autophosphorylation level, EGFR kinase assay was carried out on the basis of DELFIA/Time-Resolved Fluorometry. The compounds were first
(§8) (1 picture or pasted object on this page, not shown here)

SMILES	IC50
COc1ccc(-c2cc(-c3ccc(Cl)cc3)nc(SC(C)C)n2)cc1 [Compound 12, 4-(4-Chlorophenyl)-2-(isopropylthio)-6-(4-methoxyphenyl)pyrimidine]	35 ± 3 nM
C=CCSc1nc(-c2ccc(Cl)cc2)cc(-c2ccc(OC)cc2)n1 [Compound 13, 2-(Allylthio)-4-(4-chlorophenyl)-6-(4-methoxyphenyl)pyrimidine]	64 ± 6 nM

System: HT-29
Test: Antiproliferative assay (MTT)
Type: cell-based
Settings: Homo sapiens, HT-29 (colon), read-out: Antiproliferative activity IC50 ± SEM, HT-29
Text: as §3, §4, §5, §6, §7, §8

SMILES	IC50
COc1ccc(-c2cc(-c3ccc(Cl)cc3)nc(SC(C)C)n2)cc1 [Compound 12, 4-(4-Chlorophenyl)-2-(isopropylthio)-6-(4-methoxyphenyl)pyrimidine]	36 ± 3 nM
C=CCSc1nc(-c2ccc(Cl)cc2)cc(-c2ccc(OC)cc2)n1 [Compound 13, 2-(Allylthio)-4-(4-chlorophenyl)-6-(4-methoxyphenyl)pyrimidine]	64 ± 6 nM

System: MCF-7
Test: Antiproliferative assay (MTT)
Type: cell-based
Settings: Homo sapiens, MCF7, MCF-7 (breast), read-out: Antiproliferative activity IC50 ± SEM, MCF-7
Text: as §3, §4, §5, §6, §7, §8

SMILES	IC50
COc1ccc(-c2cc(-c3ccc(Cl)cc3)nc(SC(C)C)n2)cc1 [Compound 12, 4-(4-Chlorophenyl)-2-(isopropylthio)-6-(4-methoxyphenyl)pyrimidine]	37 ± 3 nM
C=CCSc1nc(-c2ccc(Cl)cc2)cc(-c2ccc(OC)cc2)n1 [Compound 13, 2-(Allylthio)-4-(4-chlorophenyl)-6-(4-methoxyphenyl)pyrimidine]	68 ± 6 nM

System: Panc-1
Test: Antiproliferative assay (MTT)
Type: cell-based
Settings: Homo sapiens, Panc-1 (pancreatic), read-out: Antiproliferative activity IC50 ± SEM, Panc-1
Text: as §3, §4, §5, §6, §7, §8

SMILES	IC50
COc1ccc(-c2cc(-c3ccc(Cl)cc3)nc(SC(C)C)n2)cc1 [Compound 12, 4-(4-Chlorophenyl)-2-(isopropylthio)-6-(4-methoxyphenyl)pyrimidine]	36 ± 3 nM
C=CCSc1nc(-c2ccc(Cl)cc2)cc(-c2ccc(OC)cc2)n1 [Compound 13, 2-(Allylthio)-4-(4-chlorophenyl)-6-(4-methoxyphenyl)pyrimidine]	66 ± 6 nM

System: not given
Test: not given
Settings: not given

SMILES	melting point
COc1ccc(-c2cc(-c3ccc(Cl)cc3)nc(SC(C)C)n2)cc1 [Compound 12, 4-(4-Chlorophenyl)-2-(isopropylthio)-6-(4-methoxyphenyl)pyrimidine]	198 to 201 °C
C=CCSc1nc(-c2ccc(Cl)cc2)cc(-c2ccc(OC)cc2)n1 [Compound 13, 2-(Allylthio)-4-(4-chlorophenyl)-6-(4-methoxyphenyl)pyrimidine]	245 to 247 °C
